Source: patent publication US6444144B1, “Polyethoxylated ascorbic acid derivatives as a novel antioxidant and process for preparing thereof” (LG Chemical Ltd., priority 1998, dated 2002)
Read-outs that look alike come from different tables or passages of the source.

How the values were obtained:
[1] = target: Tyrosinase extracted from mushrooms; test: Inhibitory activity against tyrosinase; assay type: biochemical; conditions: L-tyrosine substrate, DOPA cofactor, pH 6.8, 37° C., 10 minutes, absorbance at 475 nm
Experimental: Tyrosinase extracted from mushrooms was purchases from Sigma Co. First, L-tyrosine as a substrate was dissolved in a 0.05M phosphate buffer solution (pH 6.8) to have a concentration of 1.5 mM. 0.01 ml of this solution was added to a 0.3 ml spectrophotometer cuvette, followed by 0.01 ml of 0.06 mM dihydroxyphenylalamine (DOPA) as a cofactor. To this solution were added compounds of Formulas (II) and (III) and the phosphate buffer solution to have the total volume of 0.1 ml. […] Meanwhile, a blank was prepared by adding only 0.1 ml of the phosphate buffer solution. The reaction was performed at 37° C. for 10 minutes. The absorbance was measured at 475 nm with a spectrophotometer (Beckman DU-7500) to determine the inhibitory rate against tyrosinase. IC50 value was determined as the concentration of the inhibitor whose inhibitory rate against the enzyme amounts to 50%. Inhibitory Rate(%)=[(A−B)/A]×100 wherein A is the absorbance at 475 nm in a solution containing no inhibitor, and B is the absorbance at 475 nm in a solution containing an inhibitor.

[2] = Radical scavenging effect (DPPH method); conditions: for IC50: DPPH, absorption at 517 nm; for radical scavenging effect (in words): comment on Table 2, DPPH, 1 hour and 24 hours
Experimental: Measurement was made using the 1,1-diphenyl-2-picrylhydrazyl (DPPH) method [Blois, M. S. Nature, 1958, 181, 1190]. DPPH is a relatively stable radical with the maximum absorption at 517 nm. The absorption at this wavelength disappears upon removal of the radical. DPPH was purchased from Sigma Co. and dissolved in methanol to make the concentration of 0.5 mM.
First, 100 μl of each solution (10^−l to 10^−6 M) of the individual compounds prepared in examples 1 to 4 were placed in each well of a 96-well plate. After adding 100 μl of DPPH solution and standing the reaction mixture at the room temperature, the absorption at 517 nm was measured for each well using a micro plate reader (BioTeck EL-340). A blank solution was prepared to contain 100 μl of methanol instead of the above compounds. The concentration of the individual compounds was denoted by IC50 at the time when the absorption of the test sample becomes a half of that of the blank solution. The absorption was measured at 1 hour and at 24 hours after treatment.

[3] = female, naked mouse, 24 h, 5 % (w/v), pH 7.4
Experimental: More specifically, a dorsal skin of 8-weeks aged female mouse (naked mouse) was cut off and then 5% (w/v) solution of the test sample was applied in an amount of 50 μl to the skin having a size of 1.7 cm^2. Using the apparatus for measuring transdermal absorption test (Franz cell), after 24 hours, the absorbed material was extracted from 7 ml of the receptor solution [50 mM PBS buffer solution (pH=7.4) containing 2% Vol PO20 polyethylene oleyl ether (HLB=16)] and then quantitatively analyzed by HPLC.

[4] = 24 hours after treatment, read-out: Radical Scavenging Effect IC50 After 24 hrs.
[5] = read-out: Radical Scavenging Effect IC50 After 1 hour, 1 hour after treatment

Compound | IC50 [1] | IC50 [2, 4] | IC50 [2, 5] | Absorption Rate (%) [3] | Total Transdermal Absorption Amount [3] | radical scavenging effect (in words) [2]
O=C1O[C@H]([C@@H](O)CO)C(O)=C1O [Ascorbic acid] | 0.47 mM | 3.4 mM | 3.4 mM | 1.2% | 0.03 mg | 
3-O-PEG550-ascorbic acid | 7.06 mM |  |  |  |  | an increase in the radical scavenging effect with an elapse of time
2-O-PEG350-Ascorbic Acid | 1.97 mM | 5.9 mM | 7.9 mM |  |  | potent radical scavenging effect in a short time
2-O-PEG550-Ascorbic Acid | 7.06 mM | 4.2 mM | 7.9 mM |  |  | potent radical scavenging effect in a short time

Continued by falling IC50 [1], values first:

IC50 [1] | IC50 [2, 4] | IC50 [2, 5] | Absorption Rate (%) [3] | Total Transdermal Absorption Amount [3] | Compound | radical scavenging effect (in words) [2]
9.8 mM | 9.8 mM | 9.8 mM |  |  | CCOC1=C(O)C(=O)O[C@@H]1[C@@H](O)CO [3-O-Ethyl-ascorbic acid, reference compound] | 
9.8 mM | 5.9 mM | 78.7 mM |  |  | 3-O-PEG350-Ascorbic Acid | an increase in the radical scavenging effect with an elapse of time
